These results are taken from patent US10874643B2 (priority 2015, dated 2020).

The subject of assay [1] is scn1Lab mutants. The class given is in vivo, zebrafish.
Assay [2] concerns WT zebrafish exposed to 15 mM pentylenetetrazole. The experiment in a line: PTZ-induced seizure behavior in wild-type larvae (locomotion). The class given is in vivo. To be noted: 100 μM; 15 mM PTZ; n=10.
In assay [3] the target is T1, 5-HT1A(h) (Homo sapiens, UniProt P08908).
T1 construct: CEREP (contract assay panel)
T1 sequence (P08908 1-422): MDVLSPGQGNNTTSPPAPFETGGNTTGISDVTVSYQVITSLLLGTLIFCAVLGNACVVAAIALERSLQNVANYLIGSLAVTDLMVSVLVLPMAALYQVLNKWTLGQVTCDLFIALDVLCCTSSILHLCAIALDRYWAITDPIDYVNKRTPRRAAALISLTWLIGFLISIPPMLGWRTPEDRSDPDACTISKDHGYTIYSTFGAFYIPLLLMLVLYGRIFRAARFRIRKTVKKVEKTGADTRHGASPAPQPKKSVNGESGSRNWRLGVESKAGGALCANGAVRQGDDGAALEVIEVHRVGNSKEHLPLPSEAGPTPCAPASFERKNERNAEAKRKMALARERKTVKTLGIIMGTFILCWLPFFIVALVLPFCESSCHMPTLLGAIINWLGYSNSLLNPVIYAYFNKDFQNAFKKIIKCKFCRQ
The experiment in a line: CEREP BioPrint binding. The settings on record: 1.0E-05M; agonist radioligand. As to the method:
(§1) Clemizole (149934-L6) was tested in the CEREP BioPrint Profile, which is apanel of 139 different in vitro receptor binding and enzyme assays. For the initial BioPrint screen, afree compound concentration of 10 μM (LOE-5 M) was used. Compound binding was calculated as a % inhibition of the binding of aradioactively labeled ligand specific for each target. Compound enzyme inhibition effect was calculated as a % inhibition of control enzyme activity. In each experiment, the respective reference compound was tested concurrently with Clemizole (149934-L6), and the data were compared with historical values determined at CEREP. The experiment was accepted in accordance with CEREP's validation Standard Operating Procedure. Results showing an inhibition (or stimulation for assays run in basal conditions) higher than 50% are considered to represent significant effects of the test compounds.

Assay [4] deals with T2, 5-HT1B(h) (Homo sapiens, UniProt P28222).
T2 construct: CEREP (contract assay panel)
T2 sequence (P28222 whole entry): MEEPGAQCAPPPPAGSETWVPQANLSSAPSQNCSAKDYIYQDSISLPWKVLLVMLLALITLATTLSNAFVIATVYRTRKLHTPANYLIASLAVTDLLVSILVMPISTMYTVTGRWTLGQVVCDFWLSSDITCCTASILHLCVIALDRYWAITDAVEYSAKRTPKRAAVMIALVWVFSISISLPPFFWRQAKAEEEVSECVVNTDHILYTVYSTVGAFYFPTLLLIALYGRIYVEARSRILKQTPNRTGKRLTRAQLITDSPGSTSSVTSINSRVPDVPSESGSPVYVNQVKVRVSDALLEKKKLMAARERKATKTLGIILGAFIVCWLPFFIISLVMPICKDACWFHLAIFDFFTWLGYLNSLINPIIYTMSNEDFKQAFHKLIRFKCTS
The experiment in a line: CEREP BioPrint binding. To be noted: 1.0E-05M; agonist radioligand. The procedure:
as §1

Assay [5] addresses T3, 5-HT1D(h) (Homo sapiens, UniProt P28221).
T3 construct: CEREP (contract assay panel)
The experiment in a line: CEREP BioPrint binding. To be noted: 1.0E-05M; agonist radioligand. The procedure:
as §1

The target in assay [6] is T4, 5-HT2A(h) (Homo sapiens, UniProt P28223).
T4 construct: CEREP (contract assay panel)
T4 sequence (P28223 whole entry): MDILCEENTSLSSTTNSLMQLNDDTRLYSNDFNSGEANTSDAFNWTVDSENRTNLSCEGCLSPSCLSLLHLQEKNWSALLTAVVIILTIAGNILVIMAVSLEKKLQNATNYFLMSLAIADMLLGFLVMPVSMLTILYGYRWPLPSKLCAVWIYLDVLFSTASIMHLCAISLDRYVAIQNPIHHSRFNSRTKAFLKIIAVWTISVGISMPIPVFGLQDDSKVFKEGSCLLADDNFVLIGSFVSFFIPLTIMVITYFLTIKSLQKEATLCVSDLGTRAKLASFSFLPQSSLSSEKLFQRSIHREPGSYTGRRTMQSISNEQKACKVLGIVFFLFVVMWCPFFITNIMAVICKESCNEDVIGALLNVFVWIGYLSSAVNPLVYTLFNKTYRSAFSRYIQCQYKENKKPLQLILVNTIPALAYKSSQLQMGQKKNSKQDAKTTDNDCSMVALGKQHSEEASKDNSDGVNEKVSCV
The experiment in a line: CEREP BioPrint binding. The settings on record: 1.0E-05M; agonist radioligand. As to the method: as §1

The target in assay [7] is T5, 5-HT2B(h) (Homo sapiens, UniProt P41595).
T5 construct: CEREP (contract assay panel)
T5 sequence (P41595 whole entry): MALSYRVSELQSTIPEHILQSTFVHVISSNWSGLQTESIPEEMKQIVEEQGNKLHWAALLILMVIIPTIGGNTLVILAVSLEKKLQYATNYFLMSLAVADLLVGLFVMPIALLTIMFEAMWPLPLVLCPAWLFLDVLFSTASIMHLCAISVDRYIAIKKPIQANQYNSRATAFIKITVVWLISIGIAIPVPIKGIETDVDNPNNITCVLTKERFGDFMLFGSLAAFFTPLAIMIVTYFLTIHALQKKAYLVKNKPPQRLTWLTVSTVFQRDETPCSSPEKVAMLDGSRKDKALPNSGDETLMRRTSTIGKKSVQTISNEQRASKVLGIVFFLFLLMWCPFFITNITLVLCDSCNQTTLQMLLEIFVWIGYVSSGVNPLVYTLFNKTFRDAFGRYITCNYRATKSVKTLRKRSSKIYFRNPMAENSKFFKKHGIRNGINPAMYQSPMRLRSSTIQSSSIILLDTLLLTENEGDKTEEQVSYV
The experiment in a line: CEREP BioPrint binding. To be noted: 1.0E-05M; agonist radioligand. The procedure:
as §1

Assay [8] addresses T6, 5-HT3(h) (Homo sapiens, UniProt P46098).
T6 construct: CEREP (contract assay panel)
T6 sequence (P46098 24-478): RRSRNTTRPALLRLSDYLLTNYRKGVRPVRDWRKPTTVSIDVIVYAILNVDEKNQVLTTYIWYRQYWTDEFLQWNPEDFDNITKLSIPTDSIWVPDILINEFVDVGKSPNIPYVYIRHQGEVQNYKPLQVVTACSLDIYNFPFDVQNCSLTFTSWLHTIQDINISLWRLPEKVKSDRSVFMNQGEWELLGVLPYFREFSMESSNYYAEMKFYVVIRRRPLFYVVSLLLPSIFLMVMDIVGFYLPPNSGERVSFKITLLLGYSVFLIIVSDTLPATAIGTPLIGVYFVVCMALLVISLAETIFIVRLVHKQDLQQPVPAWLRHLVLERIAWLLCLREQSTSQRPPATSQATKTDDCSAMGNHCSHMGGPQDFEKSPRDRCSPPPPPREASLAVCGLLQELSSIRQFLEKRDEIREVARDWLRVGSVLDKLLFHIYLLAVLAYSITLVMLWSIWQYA
Briefly: CEREP BioPrint binding. The settings on record: 1.0E-05M; agonist radioligand. The procedure: as §1

Assay [9] has as its target T7, 5-HT4e(h) (Homo sapiens, UniProt Q13639).
T7 construct: CEREP (contract assay panel)
The experiment in a line: CEREP BioPrint binding. The settings on record: 1.0E-05M; agonist radioligand. As to the method:
as §1

Assay [10] relates to BZD (central). Briefly: CEREP BioPrint binding. To be noted: 1.0E-05M; agonist radioligand. As to the method: as §1
Assay [11] deals with T8, CB1(h) (Homo sapiens, UniProt P21554).
T8 construct: CEREP (contract assay panel)
T8 sequence (P21554 whole entry): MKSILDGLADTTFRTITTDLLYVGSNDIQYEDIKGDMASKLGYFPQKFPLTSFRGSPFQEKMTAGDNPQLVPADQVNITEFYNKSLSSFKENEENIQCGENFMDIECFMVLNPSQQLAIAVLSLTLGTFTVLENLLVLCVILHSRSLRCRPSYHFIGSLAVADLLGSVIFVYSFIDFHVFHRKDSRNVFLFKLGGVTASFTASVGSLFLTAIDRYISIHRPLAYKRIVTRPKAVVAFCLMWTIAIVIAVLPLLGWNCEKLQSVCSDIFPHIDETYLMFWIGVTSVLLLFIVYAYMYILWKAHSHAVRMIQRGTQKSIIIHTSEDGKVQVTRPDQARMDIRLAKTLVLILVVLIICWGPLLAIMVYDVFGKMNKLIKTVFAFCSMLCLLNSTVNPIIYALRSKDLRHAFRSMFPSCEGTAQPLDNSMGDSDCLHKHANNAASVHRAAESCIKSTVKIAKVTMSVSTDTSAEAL
The experiment in a line: CEREP BioPrint binding. To be noted: 1.0E-05M; agonist radioligand. The procedure:
as §1

Assay [12] concerns the target T9, CB2(h) (Homo sapiens, UniProt P34972).
T9 construct: CEREP (contract assay panel)
The experiment in a line: CEREP BioPrint binding. To be noted: 1.0E-05M; agonist radioligand. As to the method: as §1

Assay [13] relates to GABA transporter. The experiment in a line: CEREP BioPrint binding. The settings on record: 1.0E-05M. As to the method: as §1
The subject of assay [14] is GABA-gated Cl channel. The experiment in a line: CEREP BioPrint binding. The settings on record: 1.0E-05M. The procedure: as §1
For assay [15], the target named is T10, GABAA1(h) (Homo sapiens, UniProt P14867+P47870).
T10 construct: CEREP (contract assay panel)
T10 sequence (P14867 28-456): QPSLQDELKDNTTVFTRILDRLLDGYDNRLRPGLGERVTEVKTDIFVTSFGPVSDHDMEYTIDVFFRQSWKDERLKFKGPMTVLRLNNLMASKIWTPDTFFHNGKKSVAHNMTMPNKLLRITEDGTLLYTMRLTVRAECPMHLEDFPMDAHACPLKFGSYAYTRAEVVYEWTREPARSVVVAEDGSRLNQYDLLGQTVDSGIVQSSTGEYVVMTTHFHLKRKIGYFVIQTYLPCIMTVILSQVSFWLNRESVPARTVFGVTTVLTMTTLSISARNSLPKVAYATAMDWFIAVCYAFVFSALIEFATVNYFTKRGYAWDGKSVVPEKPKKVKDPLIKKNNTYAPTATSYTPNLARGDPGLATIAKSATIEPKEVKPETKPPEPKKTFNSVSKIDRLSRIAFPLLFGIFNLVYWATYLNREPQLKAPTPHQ
T10 sequence (P47870 25-512 limits assumed): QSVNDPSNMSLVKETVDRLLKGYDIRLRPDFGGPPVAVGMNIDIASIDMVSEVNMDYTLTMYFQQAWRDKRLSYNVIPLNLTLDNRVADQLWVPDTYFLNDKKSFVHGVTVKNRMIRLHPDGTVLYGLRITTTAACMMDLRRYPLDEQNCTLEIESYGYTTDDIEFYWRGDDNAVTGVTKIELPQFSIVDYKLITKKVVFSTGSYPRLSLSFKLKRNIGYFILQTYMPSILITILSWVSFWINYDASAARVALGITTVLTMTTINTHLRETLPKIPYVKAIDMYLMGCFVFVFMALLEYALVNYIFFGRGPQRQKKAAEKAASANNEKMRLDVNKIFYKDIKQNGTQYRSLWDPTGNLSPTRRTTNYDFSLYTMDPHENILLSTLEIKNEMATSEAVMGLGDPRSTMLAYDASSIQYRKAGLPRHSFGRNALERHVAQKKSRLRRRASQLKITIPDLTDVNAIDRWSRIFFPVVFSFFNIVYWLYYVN
T10 sequence (P18507 40-467 partner limits assumed): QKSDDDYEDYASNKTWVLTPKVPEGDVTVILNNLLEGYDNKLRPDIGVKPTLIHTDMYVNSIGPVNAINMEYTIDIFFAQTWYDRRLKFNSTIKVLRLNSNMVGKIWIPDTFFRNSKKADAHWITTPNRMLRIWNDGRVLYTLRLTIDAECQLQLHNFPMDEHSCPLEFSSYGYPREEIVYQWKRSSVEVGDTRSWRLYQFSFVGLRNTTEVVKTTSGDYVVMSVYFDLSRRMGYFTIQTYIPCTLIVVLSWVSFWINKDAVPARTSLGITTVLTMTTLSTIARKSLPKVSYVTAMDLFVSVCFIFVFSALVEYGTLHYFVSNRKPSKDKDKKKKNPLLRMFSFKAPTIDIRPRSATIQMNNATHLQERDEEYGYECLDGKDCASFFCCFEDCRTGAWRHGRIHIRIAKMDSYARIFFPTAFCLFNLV
The experiment in a line: CEREP BioPrint binding. The settings on record: 1.0E-05M; agonist radioligand. The procedure:
as §1

Assay [16] deals with T11, GABAB(1b)(h) (Homo sapiens, UniProt Q9UBS5).
T11 construct: CEREP (contract assay panel)
T11 sequence (Q9UBS5 1-844 isoform Q9UBS5-2): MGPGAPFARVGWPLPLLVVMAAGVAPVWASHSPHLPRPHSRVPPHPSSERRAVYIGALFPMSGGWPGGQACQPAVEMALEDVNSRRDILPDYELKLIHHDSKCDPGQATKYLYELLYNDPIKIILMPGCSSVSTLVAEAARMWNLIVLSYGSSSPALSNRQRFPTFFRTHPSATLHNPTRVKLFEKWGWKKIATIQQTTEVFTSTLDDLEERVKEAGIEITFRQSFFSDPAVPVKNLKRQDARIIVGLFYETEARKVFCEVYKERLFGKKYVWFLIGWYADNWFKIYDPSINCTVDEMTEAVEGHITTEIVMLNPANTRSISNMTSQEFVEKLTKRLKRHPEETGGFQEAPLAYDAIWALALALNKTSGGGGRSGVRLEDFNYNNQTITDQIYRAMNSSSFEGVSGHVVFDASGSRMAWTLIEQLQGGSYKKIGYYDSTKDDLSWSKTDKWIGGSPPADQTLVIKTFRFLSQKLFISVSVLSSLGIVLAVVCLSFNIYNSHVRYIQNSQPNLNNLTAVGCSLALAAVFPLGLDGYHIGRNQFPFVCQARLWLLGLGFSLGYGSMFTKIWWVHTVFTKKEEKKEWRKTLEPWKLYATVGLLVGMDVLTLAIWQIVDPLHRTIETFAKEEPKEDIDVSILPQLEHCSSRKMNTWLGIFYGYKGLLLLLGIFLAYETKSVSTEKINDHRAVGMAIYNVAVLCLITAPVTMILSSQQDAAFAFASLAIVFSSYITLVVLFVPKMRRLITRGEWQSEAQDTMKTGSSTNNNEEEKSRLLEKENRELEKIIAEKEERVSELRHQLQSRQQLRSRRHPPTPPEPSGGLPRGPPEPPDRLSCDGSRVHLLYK
The experiment in a line: CEREP BioPrint binding. The settings on record: 1.0E-05M; agonist radioligand. As to the method: as §1

The subject of assay [17] is SK-Ca channel. Briefly: CEREP BioPrint binding. To be noted: 1.0E-05M. The procedure:
as §1

The subject of assay [18] is scn1Lab mutants. Briefly: Locomotion tracking assay of seizure behavior (96-well format).

T3 sequence (P28221 whole entry): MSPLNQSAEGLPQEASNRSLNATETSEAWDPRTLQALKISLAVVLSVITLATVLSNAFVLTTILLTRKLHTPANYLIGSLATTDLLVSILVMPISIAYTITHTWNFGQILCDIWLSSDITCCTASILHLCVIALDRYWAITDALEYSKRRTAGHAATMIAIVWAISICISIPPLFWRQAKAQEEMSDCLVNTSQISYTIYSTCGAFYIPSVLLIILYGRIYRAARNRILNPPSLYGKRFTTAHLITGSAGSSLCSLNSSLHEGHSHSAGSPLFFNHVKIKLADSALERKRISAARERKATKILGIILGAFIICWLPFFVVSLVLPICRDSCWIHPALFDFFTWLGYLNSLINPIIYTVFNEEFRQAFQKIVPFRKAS
T7 sequence (Q13639 1-378 isoform Q13639-5): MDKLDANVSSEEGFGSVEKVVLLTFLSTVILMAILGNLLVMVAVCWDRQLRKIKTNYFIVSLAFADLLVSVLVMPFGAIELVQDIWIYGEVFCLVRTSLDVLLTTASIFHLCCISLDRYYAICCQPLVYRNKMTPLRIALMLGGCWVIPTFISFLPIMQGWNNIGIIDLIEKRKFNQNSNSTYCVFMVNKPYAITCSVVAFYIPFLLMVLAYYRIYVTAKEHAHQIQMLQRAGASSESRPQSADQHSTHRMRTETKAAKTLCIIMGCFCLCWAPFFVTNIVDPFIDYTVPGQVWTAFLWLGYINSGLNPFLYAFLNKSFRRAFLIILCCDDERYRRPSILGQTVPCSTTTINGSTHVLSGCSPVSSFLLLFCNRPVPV
T9 sequence (P34972 whole entry): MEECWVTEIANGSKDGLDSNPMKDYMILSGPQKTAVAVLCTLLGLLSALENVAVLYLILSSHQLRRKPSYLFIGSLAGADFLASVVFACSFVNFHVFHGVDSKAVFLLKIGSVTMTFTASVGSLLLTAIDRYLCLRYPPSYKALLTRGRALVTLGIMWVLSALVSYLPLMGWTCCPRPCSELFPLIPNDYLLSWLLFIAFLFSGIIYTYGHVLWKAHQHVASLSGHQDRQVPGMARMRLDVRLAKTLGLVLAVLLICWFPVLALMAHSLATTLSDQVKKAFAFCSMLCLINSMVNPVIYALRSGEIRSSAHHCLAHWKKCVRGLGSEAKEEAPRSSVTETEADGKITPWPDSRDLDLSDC

As to `Clc1ccc(Cn2c(CN3CCCC3)nc3ccccc32)cc1` [Clemizole], the “forebrain electrographic seizure activity in the same mutants after the locomotion assay” value in assay [1] (100 μM, mutant embedded in agar) is “effective in suppressing spontaneous seizure activity”. In assay [1] (clemizole-treated mutants (100 μM), n=7, un-treated mutants 926±414), the burst duration was determined as 154 ± 127 ms. Also, the burst frequency in [1] (mutants exposed to clemizole first in locomotion assay (100 μM), n=7, un-treated mutants 1.5±0.3) is 0.2±0.01 bursts/min. Besides, the seizure behavior entry in [2] is given as “effective in reducing seizure behavior”. For the same molecule, in assay [3], the “% inhibition of the binding of a radioactively labeled ligand, 5-HT1A(h)” value is on record as 19.5%. The “% inhibition of the binding of a radioactively labeled ligand, 5-HT1B(h)” value in assay [4] is 4.4%. Moreover, the “% inhibition of the binding of a radioactively labeled ligand, 5-HT1D(h)” value in [5] turned out to be 22.7%. Further, in assay [6], the “% inhibition of the binding of a radioactively labeled ligand, 5-HT2A(h)” value worked out at 86%. For the same molecule, the “% inhibition of the binding of a radioactively labeled ligand, 5-HT2B(h)” value in assay [7] is listed as 82.5%. Also, in [8], the “% inhibition of the binding of a radioactively labeled ligand, 5-HT3(h)” value amounted to 9.8%. Also, in assay [9], the “% inhibition of the binding of a radioactively labeled ligand, 5-HT4e(h)” value was −1.0%. Moreover, in assay [10], the “% inhibition of the binding of a radioactively labeled ligand, BZD (central)” value was −19.6%. Moreover, in assay [11], the “% inhibition of the binding of a radioactively labeled ligand, CB1(h)” value was 17.9%. Further, in assay [12], the “% inhibition of the binding of a radioactively labeled ligand, CB2(h)” value was 28.4%. In assay [13], the “% inhibition of the binding of a radioactively labeled ligand, GABA transporter” value is given as −5.9%. For the same molecule, the “% inhibition of the binding of a radioactively labeled ligand, GABA-gated Cl channel” value in [14] is 24.9%. Also, the “% inhibition of the binding of a radioactively labeled ligand, GABAA1(h)” value in [15] is reported as −9.6%. In assay [16], the “% inhibition of the binding of a radioactively labeled ligand, GABAB(1b)(h)” value is listed as −5.9%. In assay [17], the “% inhibition of the binding of a radioactively labeled ligand, SK-Ca channel” value was −0.2%. Further, in assay [18] (100 μM, 10 fish per trial), the “swim activity / seizure behavior, third evaluation” value is on record as “effective in suppressing spontaneous seizure activity”. Further, the “seizure-induced swim activity and mean velocity, re-test on separate clutch” value in assay [18] (667, 67 and 6.7 μM) was “effective in reducing seizure-induced swim activity and mean velocity”. In addition, the “effect on seizure behavior” value in assay [18] (concentrations between 6.25 and 50 μM, n=33) is on record as “no significant effect”.
